Broadly, the IC50 is the concentration that gives 50% inhibition.

The values below come from patent US20230263897A1, “CONJUGATE OF GALNAC AND SAPONIN, […] COMPOSITION COMPRISING SAID CONJUGATE AND A GALNAC-OLIGO[…]” (SAPREME TECHNOLOGIES B.V., priority 2020, published 2023).

Read-outs that look alike come from different tables or passages of the source. [BNANC] = BNA^NC bridged nucleic acid sugar; d = 2'-deoxy (DNA)

In data set [1] the test system is primary human hepatocytes. The data set can be described thus: Cell viability assay (CTG) on primary human hepatocytes. Conditions: for IC50 / effect on cell viability: primary human hepatocytes. On the procedure:
The ‘trivalent-GalNAc’ as depicted in FIGS. 1 and 8 is a typical (GalNAc)3Tris conjugate suitable for coupling to an effector molecule or to saponin. […] Primary hepatocytes express receptor at high density—allow for targeting.
Primary hepatocytes which highly express ASGPR1 (ASGPR1*) and hepatocyte cells of cell-line Huh7 (ASGPR1^+/−) were treated with a concentration range of trivalent-GalNAc-SO1861 (TrivalentGalNAc-SPT001), either or not in the presence of 10 μM CD71-saporin (monoclonal antibody OKT-9 targeting CD71 conjugated to the protein toxin saporin; FIG. 30D).
After treatment the cells were incubated for 72 hr at 37° C. before the cell viability was determined by a CTG-assay, performed according to the manufacturer's instruction (CellTiter-Glo® 2.0 Cell Viability Assay, Promega). Briefly, the cell plate was first equilibarated to RT for 30 minutes. Next, to each well containing 120 μL treatment media 120 μL CTG solution was added. The plate briefly mixed (10 sec, 600 rpm) and incubated for approximately 10 minutes in the dark at RT. Subsequently, the luminescence signal was measured on a Spectramax ID5 plate reader (Molecular Devices). For quantification, the background signal of ‘medium only’ wells was subtracted from all other wells before the cell viability percentage of treated/untreated cells was calculated by dividing the background corrected signal of treated wells over the background corrected signal of the untreated wells (×100).
Cryopreserved primary human hepatocytes (Cytes Biotechnologies S.L., Spain) were thawed in hepatocyte thawing media (Cytes Biotechnologies S.L., Spain). Cells were re-suspended in hepatocyte plating media (Cytes Biotechnologies S.L., Spain). Cells were seeded onto collagen-I coated plates at a density of 215.600 cells/well or 66.600 cells/well for the 48 or 96-well plates (Greiner BioOne). Cells were pre-cultured for 4-6 hrs at 37° C. allowing for cell attachment to cell culture plates before the start of treatment. Plating medium was replaced by 315 μl or 108 μl maintenance media (Cytes Biotechnologies S.L., Spain), after which conjugates were added from a 10× concentrated stock solution in PBS. Plates were incubated for 72 hr at 37° C. being harvested for gene expression and cell viability analysis.

In the next data set the test system is ApoB protein. In words: ApoB protein expression by Huh7 cells. The format is cell-based, human.
For data set [2], the system named is ApoB. In words: ApoB gene silencing (qPCR) in Huh7 cells. The format is cell-based, human. Conditions: for IC50: + 4000 nM trivalent-GalNAc-L-SO1861. The method, then: (§1) ApoB gene silencing in HepG2 (ASGPR1*) cells or Huh7 (ASPGR1^+/−) was determined. […] Thus, a conjugate comprising a labile bond between any two molecules forming the conjugate or comprised by the conjugate, will be cleaved at a position in the labile linker, therewith dissociating the two linked or bound molecules. An example is the cleavage of a hydrazone bond under acidic conditions as apparent in the endosome and lysosome of mammalian cells such as human cells.
(§2) ApoB gene silencing HepG2 (ASGPR1*) cells and Huh7 (ASPGR1^+/−) cells was determined.
(§3) RNA from cells was isolated and analysed according to standard protocols (Biorad). qPCR primers that were used are indicated in Table A2.

In the next data set the test system is ApoB RNA. In words: ApoB RNA expression analysis on primary human hepatocytes. Type of data set: cell-based. The method, then:
RNA from cells was isolated using TRI Reagent® Solution (Thermo Scientific) according to the manufacturer's instruction. Conversion into cDNA was performed using iScript™ cDNA Synthesis Kit (BioRad) using standard protocols. ApoB expression levels and levels of specific hepatocyte housekeeping genes were determined using quantitative real-time PCR assays (qRT-PCR) using iTaq™ Universal SYBR® Green Supermix (BioRad) and the Light Cycler 480 (Roche Diagnostics, Rotkreuz, Switzerland) with specific DNA primers, listed in Table A4. Analysis was done by the ΔCt method to determine ApoB expression relative to 2 hepatocyte-specific housekeeping control mRNAs. Each analysis reaction was performed in triplicate.

Data set [3] deals with ApoB. In words: ApoB gene silencing (qPCR) in HepG2 cells. The format is cell-based, human. The method, then:
as §1, §2, §3

In data set [4] the test system is HSP27. The data set can be described thus: HSP27 gene silencing (qPCR) in Huh7 cells. The format is cell-based, human. Conditions: + 4000 nM SO1861-EMCH. On the procedure:
(§4) HSP27 gene silencing in HepG2 and Huh7 cells was determined.
as §3
A general note: Real-time PCR tracks product formation cycle by cycle.

Data set [5] relates to HSP27. In words: HSP27 gene silencing (qPCR) in HepG2 cells. The format is cell-based, human. Conditions: + 4000 nM SO1861-EMCH. The method, then:
as §4, §3

Where [6] appears, read: + 4000 nM trivalent-GalNAc-L-SO1861.

For `CC(=O)OC1C(C)OC(OC2C(C)OC(OC(=O)[C@]34CCC(C)(C)CC3C3=CCC5[C@@]6(C)CC[C@H](OC7OC(C(=O)O)C(O)C(OC8OCC(O)C(O)C8O)C7OC7OC(CO)C(O)C(O)C7O)[C@@](C)(C=O)C6CC[C@@]5(C)[C@]3(C)C[C@H]4O)C(OC3OC(C)C(OC4OCC(O)C(OC5OC(CO)C(O)C(O)C5O)C4O)C(O)C3O)C2O)C(O)C1OC1OCC(O)C(O)C1O` (stereo partly shown) [SO1861, reference compound], the IC50 in data set [1] (read-out: SO1861 IC50 for CD71-saporin mediated cell killing, + 10 μM CD71-saporin (non-effective concentration)) was 200 nM.

As to `CC(=O)OC1C(C)OC(OC2C(C)OC(OC(=O)[C@]34CCC(C)(C)CC3C3=CCC5[C@@]6(C)CC[C@H](OC7OC(C(=O)O)C(O)C(OC8OCC(O)C(O)C8O)C7OC7OC(CO)C(O)C(O)C7O)[C@@](C)(/C=N/NC(=O)CCCCCN7C(=O)C=CC7=O)C6CC[C@@]5(C)[C@]3(C)C[C@H]4O)C(OC3OC(C)C(OC4OCC(O)C(OC5OC(CO)C(O)C(O)C5O)C4O)C(O)C3O)C2O)C(O)C1OC1OCC(O)C(O)C1O` (stereo partly shown) [SO1861-EMCH], in data set [1] (primary hepatocytes, + 10 μM CD71-saporin), the “factor of potency increase when cell viability of liver cells is considered” value was approximately 10 factor.

“TrivalentGalNAc-ApoBBNA: conjugate of trivalent GalNAc and the ApoB antisense BNA oligonucleotide ApoBBNA (SEQ ID NO: 2); L or S linker not stated (antisense GCCTCAGTCTGCTTCGCACC; sugars from the 5' end [BNANC]5 d10 [BNANC]5, all phosphorothioate, methylation of C not given here; trivalent GalNAc conjugated via linker, attachment via 5'-thiol C6 linker implied)”: the “lowering of ApoB protein expression” value with ApoB protein (+ 300 nM TrivalentGalNAc-SPT001, FIG. 32B) is “Neither TrivalentGalNAc-ApoBBNA, nor the combination of TrivalentGalNAc-ApoBBNA and TrivalentGalNAc-SPT001 induce lowering of the ApoB protein expression”; with ApoB protein (alone, FIG. 32B), “Neither TrivalentGalNAc-ApoBBNA, nor the combination of TrivalentGalNAc-ApoBBNA and TrivalentGalNAc-SPT001 induce lowering of the ApoB protein expression”. In addition, the “lowering of ApoB mRNA expression” value in the data set with ApoB [2] (+ 300 nM TrivalentGalNAc-SPT001, FIG. 31B) is “Neither TrivalentGalNAc-ApoBBNA, nor the combination of TrivalentGalNAc-ApoBBNA and TrivalentGalNAc-SPT001 induce lowering of the ApoB mRNA expression”; with ApoB [2] (alone, FIG. 31B), “Neither TrivalentGalNAc-ApoBBNA, nor the combination of TrivalentGalNAc-ApoBBNA and TrivalentGalNAc-SPT001 induce lowering of the ApoB mRNA expression”.

“trivalent-GalNAc-L-ApoBBNA: ApoBBNA (SEQ ID NO: 2) conjugated to trivalent-GalNAc, labile conjugation, FIG. 6 (antisense GCCTCAGTCTGCTTCGCACC; BNA oligo, pattern not given here, trivalent GalNAc via labile linker, position not given here)”: the IC50 with ApoB RNA (+ 250 nM (GalNAc)3-SO1861) was 15 nM; in the data set on ApoB RNA (+ 2000 nM SO1861-EMCH) it was 8 nM; with ApoB RNA (alone), more than 1000 nM; in the data set on ApoB [2], 700 nM; in the data set on ApoB [3] (+ 4000 nM SO1861-EMCH), 10 nM; in the data set with ApoB [3] (setting [6]), 50 nM. Besides, in data set [1] (read-out: IC50 decreased cell viability, + 2000 nM SO1861-EMCH, FIG. 24 B), the half-inhibitory concentration (IC50) worked out at 600 nM. Besides, the “effect on cell viability” value in data set [1] (+ 250 nM (GalNAc)3-SO1861, FIG. 24 B) is recorded as “without affecting cell viability significantly”; in data set [1] (alone, FIG. 24 B), “no effects on cell viability were observed”.

In the case of “trivalent-GalNAc-L-HSP27BNA: HSP27BNA (SEQ ID NO: 1) conjugated to trivalent-GalNAc, labile conjugation, FIG. 6 (antisense GGCACAGCCAGTGGCG; sugars from the 5' end [BNANC]3 d10 [BNANC]3, all phosphorothioate, methylation of C not given here; further chemistry not fully specified)”, the IC50 with HSP27 [4] came to 3 nM; with HSP27 [5], 0.1 nM.

Turning to “trivalent-GalNAc-S-ApoBBNA: ApoBBNA (SEQ ID NO: 2) conjugated to trivalent-GalNAc, stable conjugation, FIG. 7 (antisense GCCTCAGTCTGCTTCGCACC; sugars from the 5' end [BNANC]5 d10 [BNANC]5, all phosphorothioate, methylation of C not given here; further chemistry not fully specified)”, the IC50 came to 700 nM in the data set with ApoB [2], 10 nM with ApoB [3] (+ 4000 nM SO1861-EMCH) and 50 nM in the data set with ApoB [3] (setting [6]).

Turning to “trivalent-GalNAc-S-HSP27BNA: HSP27BNA (SEQ ID NO: 1) conjugated to trivalent-GalNAc, stable conjugation, FIG. 7 (GGCACAGCCAGTGGCG; sugars from the 5' end [BNANC]3 d10 [BNANC]3, all phosphorothioate, methylation of C not given here; further chemistry not fully specified)”, the half-maximal inhibitory concentration (IC50) with HSP27 [4] is 3 nM; in the data set with HSP27 [5] it was 0.1 nM.
